Where “and” joins values, the source holds several entries; their conditions need not be identical. Equal values may be shown once. Inconclusive results and toxic doses are left out.
System: P388 leukemia ip, CD2F1 mice, survival T/C
Assay: NCI In Vivo Anticancer Drug Screen. Data for tumor model P388 Leukemia (intraperitoneal) in CD2F1 (CDF1) mice
Details: endpoint: median survival time, higher = longer survival
Method in brief: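 Mice carrying the transplanted tumor received test compound or vehicle. Survival was recorded in each group, and the value is the treated-group measurement divided by that of the vehicle-treated control group.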

[1] = dose: 50.0 mg/kg/injection, schedule: Q01DX009 (ip), vehicle: saline with Tween-80
[2] = dose: 100.0 mg/kg/injection, schedule: Q01DX009 (ip), vehicle: saline with Tween-80
[3] = dose: 50.0 mg/kg/injection, schedule: Q01DX005 (ip), vehicle: Klucel (hydroxypropylcellulose) (HPC)
[4] = dose: 100.0 mg/kg/injection, schedule: Q01DX005 (ip), vehicle: Klucel (hydroxypropylcellulose) (HPC)
[5] = dose: 200.0 mg/kg/injection, schedule: Q01DX005 (ip), vehicle: Klucel (hydroxypropylcellulose) (HPC)

CC(C)(C)c1cc(O)cc(C(=O)O)c1O
T/C [1]: 101 % of control
T/C [2]: 100 % of control

COc1cc(OC)c2c(=O)c3cc(OC)c(OC)cc3oc2c1
T/C (dose: 8.3 mg/kg/injection, schedule: Q01DX009 (ip), vehicle: Klucel (hydroxypropylcellulose) (HPC)): 98 % of control
T/C (dose: 16.5 mg/kg/injection, schedule: Q01DX009 (ip), vehicle: Klucel (hydroxypropylcellulose) (HPC)): 117 % of control
T/C (dose: 33.0 mg/kg/injection, schedule: Q01DX009 (ip), vehicle: Klucel (hydroxypropylcellulose) (HPC)): 107 % of control
T/C (dose: 66.0 mg/kg/injection, schedule: Q01DX009 (ip), vehicle: Klucel (hydroxypropylcellulose) (HPC)): 107 % of control

NC(=O)N/N=C1/CCC(O)CC1CC(=O)O (configuration not stated)
T/C [3]: 103 % of control
T/C [4]: 100 % of control
T/C [5]: 97 % of control

CN(C)CC/C(Br)=C1/c2ccccc2Sc2ccc(Cl)cc21
T/C [3]: 111 % of control
T/C [4]: 98 % of control
T/C [5]: 93 % of control

COc1ccc2ncc(COC(=O)NCCCl)c(COC(=O)NCCCl)c2c1
T/C (dose: 25.0 mg/kg/injection, schedule: Q01DX005 (ip), vehicle: Klucel (hydroxypropylcellulose) (HPC)): 92 % of control
T/C [3]: 86 % of control
T/C [4]: 88 % of control
T/C [5]: 86 % of control

NC(=O)c1ccccc1OC(=O)Nc1ccc(F)cc1
T/C (dose: 15.0 mg/kg/injection, schedule: Q01DX005 (ip), vehicle: saline with Tween-80): 101 % of control
T/C (dose: 30.0 mg/kg/injection, schedule: Q01DX005 (ip), vehicle: saline with Tween-80): 97 % of control
T/C (dose: 60.0 mg/kg/injection, schedule: Q01DX005 (ip), vehicle: saline with Tween-80): 99 % of control and 103 % of control
T/C (dose: 120.0 mg/kg/injection, schedule: Q01DX005 (ip), vehicle: saline with Tween-80): 99 % of control

COc1cc(N(CC(C)Br)CC(C)Br)ccc1N=Nc1ccccc1C(=O)O (configuration not stated)
T/C (dose: 1.56 mg/kg/injection, schedule: Q01DX009 (ip), vehicle: saline with Tween-80): 164 % of control
T/C (dose: 3.12 mg/kg/injection, schedule: Q01DX009 (ip), vehicle: saline with Tween-80): 160 % of control and 169 % of control

COc1cc([N+](=O)[O-])c(OC)cc1Nc1ccccc1C(=O)O
T/C (dose: 60.0 mg/kg/injection, schedule: Q01DX005 (ip), vehicle: Klucel + Tween-80): 89 % of control
T/C (dose: 120.0 mg/kg/injection, schedule: Q01DX005 (ip), vehicle: Klucel + Tween-80): 90 % of control

CC1(C)C=CC(=O)C=C1C#N
T/C (dose: 100.0 mg/kg/injection, schedule: Q01DX001 (ip), vehicle: Klucel (hydroxypropylcellulose) (HPC)): 92 % of control
T/C (dose: 200.0 mg/kg/injection, schedule: Q01DX001 (ip), vehicle: Klucel (hydroxypropylcellulose) (HPC)): 104 % of control
T/C (dose: 400.0 mg/kg/injection, schedule: Q01DX001 (ip), vehicle: Klucel (hydroxypropylcellulose) (HPC)): 106 % of control

C1CCC2=NCCCN2CC1
T/C (dose: 6.25 mg/kg/injection, schedule: Q01DX009 (ip), vehicle: Klucel (hydroxypropylcellulose) (HPC)): 107 % of control
T/C (dose: 12.5 mg/kg/injection, schedule: Q01DX009 (ip), vehicle: Klucel (hydroxypropylcellulose) (HPC)): 103 % of control
T/C (dose: 25.0 mg/kg/injection, schedule: Q01DX009 (ip), vehicle: Klucel (hydroxypropylcellulose) (HPC)): 105 % of control

CC(=O)c1c(OCC(O)CN(CCO)CCO)ccc2c(C)cc(=O)oc12 (configuration not stated)
T/C (dose: 50.0 mg/kg/injection, schedule: Q01DX005 (ip), vehicle: saline with Tween-80): 107 % of control
T/C (dose: 100.0 mg/kg/injection, schedule: Q01DX005 (ip), vehicle: saline with Tween-80): 104 % of control
T/C (dose: 200.0 mg/kg/injection, schedule: Q01DX005 (ip), vehicle: saline with Tween-80): 108 % of control

CC(=O)OCC(O)CS(=O)c1ccc(C)cc1 (configuration not stated)
T/C (dose: 25.0 mg/kg/injection, schedule: Q01DX009 (ip), vehicle: saline with Tween-80): 100 % of control
T/C [1]: 99 % of control
T/C [2]: 98 % of control

COc1cc(OC)c(C(C)=O)c(O)c1C
T/C (dose: 12.5 mg/kg/injection, schedule: Q01DX009 (ip), vehicle: distilled water + Tween-80): 94 % of control
T/C (dose: 25.0 mg/kg/injection, schedule: Q01DX009 (ip), vehicle: distilled water + Tween-80): 101 % of control
T/C (dose: 50.0 mg/kg/injection, schedule: Q01DX009 (ip), vehicle: distilled water + Tween-80): 98 % of control
T/C (dose: 100.0 mg/kg/injection, schedule: Q01DX009 (ip), vehicle: distilled water + Tween-80): 99 % of control
T/C (dose: 200.0 mg/kg/injection, schedule: Q01DX009 (ip), vehicle: distilled water + Tween-80): 109 % of control
T/C (dose: 400.0 mg/kg/injection, schedule: Q01DX009 (ip), vehicle: distilled water + Tween-80): 100 % of control

From PubChem BioAssay AID330 (DTP/NCI, 2004)
